Reference: patent US11730712B2, “Functionalized long-chain hydrocarbon mono- and di-carboxylic acids and derivatives thereof, and their use for the prevention or treatment of disease” (ESPERVITA THERAPEUTICS, INC., priority 2021, dated 2023)
Where “and” joins values, the source holds several entries; their conditions need not be identical. Equal entries are not always repeated. Where two headings read alike, the source gives them in different places.

How the values were obtained:
Hep3B cells [1] = test: Drug interaction (combination) in Hep3B cell proliferation; assay type: cell-based
Experimental: FIGS. 41A-41B show drug interaction effect of Compound I-32 (FIG. 41A) and Compound I-1 (FIG. 41B) in combination with regorafenib in Hep3B cell proliferation. In FIG. 41A, “1+0.015 (μM)” means 1 μM Compound I-32+0.015 μM regorafenib, etc. In FIG. 41B, “1+0.015 (μM)” means 1 μM Compound I-1+0.015 μM regorafenib, etc.
In FIG. 44A, “1+0.03 (μM)” means 1 μM Compound I-1+0.03 μM sorafenib, etc. […] In FIG. 44B, “1+0.005 (μM)” means 1 μM Compound I-1+0.005 μM lenvatinib, etc. […] In FIG. 44C, “1+0.03 (μM)” means 1 μM Compound I-32+0.03 μM sorafenib, etc. […] In FIG. 44D, “1+0.005 (μM)” means 1 μM Compound I-32+0.005 μM lenvatinib, etc.

Hep3B cells [2] = test: Hep3B cell proliferation; assay type: cell-based; conditions: with or without regorafenib (1.5 μM)
From the text: FIG. 36 show anti-proliferative effect of illustrative compounds of the invention in Hep3B cells.
Each bar represents the mean±the SEM, n=5. *p<0.03, **p<0.002, ***p<0.0002, ****p<0.0001, One-way ANOVA followed by Tukey's multiple comparison.

[3] = tested on: C57BL6J mice on high fat high fructose diet; test: Hepatic de novo lipogenesis (14C-glucose incorporation) in murine model of NASH; assay type: in vivo, mouse; conditions: for inhibition at 10 mg/kg / inhibition at 30 mg/kg / inhibition at 60 mg/kg: Mus musculus
Experimental: Experimental Protocol. FIG. 17A describes the study protocol. Mice were dosed daily for 7 days with a single dose of either Compound I-32 or Compound I-1 at a dose of 10 mg/kg, 30 mg/kg or 60 mg/kg. On the 8th day of the experiment mice receive final dose of Compound I-32 or Compound I-1, followed one hour later by an I.P. bolus of 14-C Glucose.
C57BL6J (8 weeks of age) were obtained for the Jackson Laboratory and fed a normal chow diet upon arrival. At ˜10 weeks of age, mice were given a diet containing high fat and high fructose (Rodent Diet with 40 kcal % Fat (Mostly Palm Oil), 20 kcal % fructose, and 0.02% cholesterol, obtained from Research Diets, Product Code: D19101102) and housed at thermoneutral conditions (26-29° C.). […] On the morning of day 8, animals received a final dose and after 1 hour […] (PerkinElmer) was administered at a concentration of 12 μCi per mouse in a volume of 0.1 ml in 0.9% saline I.P. One hour after ^14C-glucose was given, animals were anesthetized by I.P. injection of Ketamine/Xylazine (150 mg/12.4 mg/kg, respectively). Blood was drawn through cardiac puncture; the liver was removed, and a sample was from the left lobe and frozen in liquid nitrogen. Liver tissue was chipped on dry-ice and the weight of the chip weight recorded (30-50 mg of tissue). Liver tissue was homogenized in 1 ml of 2:1 chloroform:methanol using a bead homogenizer at 5000 rpm for 2×12 seconds. Samples were incubated with gentle shaking at 4° C. for 2 hours, vortexed for 2×12 seconds, and then centrifuge at 7000 rpm for 10 minutes at 4° C. The supernatant was transferred to a 1.5 ml Eppendorf and 200 μl of 0.9% saline was added. Samples were vortexed for 2×12 seconds and centrifuged at 3000 rpm for 10 minutes at 4° C. 200 μl of the lower organic phase was removed and added to 5 ml of scintillation fluid. The amount radioactivity in the sample was measured by scintillation counting. The number of disintegrations per minute (DPM) were determined over a 5-minute period and normalized to the amount of liver tissue. 5-10 μl of plasma obtained at termination was also counted and lipid/gram tissue counts were normalized to plasma counts. Statistical comparisons were carried out using a one-way ANOVA followed by Dunnett's post hoc test using GraphPad Prism 8 software. A p-value of less than or equal to 0.05 was used as the criterion of significance.

mouse kidney = test: Kidney histology in DEN NASH-HCC mice after 4 weeks of treatment; assay type: in vivo; parameters: key to Tubular injury score, Average / Tubular mitoses score, Average / Tubular vacuoles score, Average / Interstitial inflammation score, Average / Interstitial fibrosis score, Average / Glomerular score, Average: 0 = not present to 5 = severe, overwhelming change; mean of mice; key to Tubular mitoses score, individual mice / Interstitial inflammation score, individual mice / Interstitial fibrosis score, individual mice / Glomerular score, individual mice / Tubular injury score, individual mice / Tubular vacuoles score, individual mice: 0—not present; 1—minimal, inconspicuous change; 2—slight, noticeable but not a prominent feature; 3—moderate, prominent feature; 4—marked, dominant but not overwhelming feature; 5—severe, overwhelming change; conditions: for Glomerular score, individual mice / Interstitial fibrosis score, individual mice / Interstitial inflammation score, individual mice / Tubular injury score, individual mice / Tubular mitoses score, individual mice / Tubular vacuoles score, individual mice / Glomerular score, Average / Interstitial fibrosis score, Average / Interstitial inflammation score, Average / Tubular injury score, Average / Tubular mitoses score, Average / Tubular vacuoles score, Average: kidney; for Glomerular score, Average / Interstitial fibrosis score, Average / Interstitial inflammation score, Average / Tubular injury score, Average / Tubular mitoses score, Average / Tubular vacuoles score, Average: 8 mice
Experimental: Kidney Histology. Following fixation with 10% neutral buffered formalin for 46 hours, kidneys were cleaved longitudinally through hilium and immersed in 70% ethanol. Kidneys were then processed, paraffin embedded, serially sectioned and stained with haematoxylin and eosin (H&E) and Masson's Trichrome (MTC) by the McMaster Immunology Research Centre histology Core Facility. Blinded kidney histological scores for tubular injury, tubular mitoses, tubular vacuoles, interstitial inflammation, interstitial fibrosis, glomerular were assigned by pathologists.
Kidney Histology. […] In Table 15, pathologist's scoring is as follows: 0—not present; 1—minimal, inconspicuous change; 2—slight, noticeable but not a prominent feature; 3—moderate, prominent feature; 4—marked, dominant but not overwhelming feature; 5—severe, overwhelming change.

[4] = 10 mg/kg, read-out: % change from vehicle control, hepatic de novo lipogenesis (inhibition)
[5] = 30 mg/kg, read-out: % change from vehicle control, hepatic de novo lipogenesis (inhibition)
[6] = 60 mg/kg, read-out: % change from vehicle control, hepatic de novo lipogenesis (inhibition)

Row | Structure (SMILES) | drug interaction effect in combination with lenvatinib (Hep3B cells [1]; at various concentrations) | effect on proliferation (Hep3B cells [2]) | % change from vehicle control, hepatic de novo lipogenesis (inhibition) ([3]; 30 mg/kg) | % change from vehicle control, hepatic de novo lipogenesis (inhibition) ([3]; 60 mg/kg) | inhibition at 10 mg/kg [3, 4] | inhibition at 30 mg/kg [3, 5] | inhibition at 60 mg/kg [3, 6] | kidney pathological differences vs Vehicle (mouse kidney) | Glomerular score, individual mice (mouse kidney) | Interstitial fibrosis score, individual mice (mouse kidney) | Interstitial inflammation score, individual mice (mouse kidney) | Tubular injury score, individual mice (mouse kidney) | Tubular mitoses score, individual mice (mouse kidney) | Tubular vacuoles score, individual mice (mouse kidney) | Glomerular score, Average (mouse kidney) | Interstitial fibrosis score, Average (mouse kidney) | Interstitial inflammation score, Average (mouse kidney) | Tubular injury score, Average (mouse kidney) | Tubular mitoses score, Average (mouse kidney) | Tubular vacuoles score, Average (mouse kidney) | other results
1 | CC(C)(CCCCc1cccc(CCCCC(C)(C)C(=O)O)c1)C(=O)O [Compound I-32, 6-[3-(5-carboxy-5-methylhexyl)-phenyl]-2,2-dimethylhexanoic acid] | synergism | anti-proliferation effect | 37.42% | 52.90% | 49% | 37% | 53% | no pathological differences | 0 and 0.5 (5×) and 1 (2×) | 0.5 (2×) and 1 (3×) and 2 and 1.5 (2×) | 0 (3×) and 2.5 and 1 and 1.5 and 0.5 (2×) | 0 (3×) and 1.5 (4×) and 1 | 0 (4×) and 1 (2×) and 0.5 (2×) | 0.5 and 3.5 and 1.5 and 3 and 2 and 1 (3×) | 0.56 | 1.13 | 0.75 | 0.88 | 0.38 | 1.69 | drug interaction effect in combination with sorafenib (Hep3B cells [1]; at all tested concentrations): synergism; % change from vehicle control, hepatic de novo lipogenesis (inhibition) ([3]; 10 mg/kg): 48.79%; inhibition at 10 mg/kg ([3]; 10 mg/kg, 30 mg/kg and 100 mg/kg, all three doses tested (as printed in text), read-out: inhibition of liver lipogenesis): ~50%
2 | CC(C)(CCCCc1ccc(CCCCC(C)(C)C(=O)O)cc1)C(=O)O [Compound I-1, 6-[4-(5-carboxy-5-methylhexyl)-phenyl]-2,2-dimethylhexanoic acid] | synergism | anti-proliferation effect | 55.65% | 68.96% | 17.8% | 56% | 69% | no pathological differences | 0 (3×) and 1 (2×) and 0.5 (3×) | 1 (4×) and 0.5 (2×) and 0 and 1.5 | 0 (5×) and 0.5 (3×) | 1.5 and 1 and 0.5 (4×) and 0 (2×) | 1 and 0 (3×) and 0.5 (4×) | 3.5 and 1.5 (3×) and 3 and 0.5 (2×) and 1 | 0.44 | 1.0 | 0.19 | 0.56 | 0.38 | 1.63 | drug interaction effect in combination with sorafenib (Hep3B cells [1]; at various concentrations): synergism
